The results in this text go back to ChEMBL document CHEMBL3763124, “N-Benzylbenzamides: A Novel Merged Scaffold for Orally Available Dual Soluble Epoxide Hydrolase/Peroxisome Proliferator-Activated Receptor γ Modulators” (J Med Chem, 2016).

As usually defined, the solubility is the concentration that dissolves in the medium under given conditions. As usually defined, the IC50 is the concentration at which inhibition is half-maximal. As usually defined, the inhibition is the relative decrease from the control value, in per cent.

The nature of series [1]: Solubility of the compound in water by microplate reader analysis. It counts as physicochemical.
For series [2], the target named is T1, Peroxisome proliferator-activated receptor delta (Homo sapiens, UniProt Q03181).
T1 sequence (Q03181 whole entry): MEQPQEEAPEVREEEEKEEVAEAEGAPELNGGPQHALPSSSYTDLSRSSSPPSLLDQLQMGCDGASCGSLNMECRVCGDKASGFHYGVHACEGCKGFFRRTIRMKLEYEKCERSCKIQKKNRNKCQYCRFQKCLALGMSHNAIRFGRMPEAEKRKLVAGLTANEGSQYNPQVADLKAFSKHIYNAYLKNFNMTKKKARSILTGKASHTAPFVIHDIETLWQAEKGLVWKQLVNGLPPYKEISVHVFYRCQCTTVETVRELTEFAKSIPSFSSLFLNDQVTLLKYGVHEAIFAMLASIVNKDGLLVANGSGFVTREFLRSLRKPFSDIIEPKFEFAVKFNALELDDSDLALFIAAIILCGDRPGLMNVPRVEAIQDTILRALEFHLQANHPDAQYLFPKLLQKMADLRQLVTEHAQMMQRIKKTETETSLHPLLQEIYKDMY
The series is described as follows: Transactivation of human PPARdelta expressed in African green monkey COS7 cells incubated overnight by dual-glo luciferase reporter gene assay. The conditions noted are these: cos-7. It counts as cell-based. (Reporter assays use an easily measured gene product as a stand-in for the process of interest.)

Series [3] concerns the target T2, Peroxisome proliferator-activated receptor alpha (Homo sapiens) (UniProt Q07869).
T2 sequence (whole entry): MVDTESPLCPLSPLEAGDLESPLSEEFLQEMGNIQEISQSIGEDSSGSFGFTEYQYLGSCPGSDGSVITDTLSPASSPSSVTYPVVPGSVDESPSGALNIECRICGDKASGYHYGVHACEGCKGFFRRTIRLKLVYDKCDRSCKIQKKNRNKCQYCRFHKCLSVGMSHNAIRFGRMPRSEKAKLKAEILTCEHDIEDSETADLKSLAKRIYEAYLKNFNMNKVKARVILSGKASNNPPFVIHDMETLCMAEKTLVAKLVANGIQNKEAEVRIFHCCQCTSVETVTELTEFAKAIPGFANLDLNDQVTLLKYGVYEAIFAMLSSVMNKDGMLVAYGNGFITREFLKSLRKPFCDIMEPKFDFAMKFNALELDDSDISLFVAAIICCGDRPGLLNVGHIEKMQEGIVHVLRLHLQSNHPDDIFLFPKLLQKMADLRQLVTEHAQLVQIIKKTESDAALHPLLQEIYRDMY
The series is described as follows: Transactivation of human PPARalpha expressed in African green monkey COS7 cells incubated overnight by dual-glo luciferase reporter assay relative to GW7647. To be noted: COS-7. It counts as cell-based.

Series [4] has as its target T3, Peroxisome proliferator-activated receptor delta (Homo sapiens) (UniProt Q03181).
T3 sequence (whole entry): T1 sequence (Q03181 whole entry)
The series is described as follows: Transactivation of human PPARdelta expressed in African green monkey COS7 cells at 10 uM incubated overnight by dual-glo luciferase reporter assay. The format is cell-based. To be noted: COS-7.

The target of series [5] is T4, Peroxisome proliferator-activated receptor alpha (Homo sapiens, UniProt Q07869).
T4 sequence (Q07869 whole entry): T2 sequence (whole entry)
The conditions noted are these: cos-7.
Description: Transactivation of human PPARalpha expressed in African green monkey COS7 cells incubated overnight by dual-glo luciferase reporter gene assay

Series [6] has as its target T5, Bifunctional epoxide hydrolase 2 (Homo sapiens, UniProt P34913).
T5 sequence (P34913 whole entry): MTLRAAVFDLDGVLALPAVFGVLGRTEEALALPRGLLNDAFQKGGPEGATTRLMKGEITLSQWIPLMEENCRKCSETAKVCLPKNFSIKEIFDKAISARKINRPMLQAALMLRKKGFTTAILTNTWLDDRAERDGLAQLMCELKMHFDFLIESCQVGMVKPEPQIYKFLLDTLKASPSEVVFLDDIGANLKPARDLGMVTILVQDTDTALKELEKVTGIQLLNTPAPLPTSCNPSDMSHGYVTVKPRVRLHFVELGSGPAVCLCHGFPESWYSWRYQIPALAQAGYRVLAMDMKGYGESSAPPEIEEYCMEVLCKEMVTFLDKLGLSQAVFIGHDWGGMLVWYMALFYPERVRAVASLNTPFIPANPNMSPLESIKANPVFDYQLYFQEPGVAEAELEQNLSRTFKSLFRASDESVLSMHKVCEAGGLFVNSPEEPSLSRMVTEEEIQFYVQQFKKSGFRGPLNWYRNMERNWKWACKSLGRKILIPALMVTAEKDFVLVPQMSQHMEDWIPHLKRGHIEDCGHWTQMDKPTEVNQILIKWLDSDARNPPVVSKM
The series can be described thus: Inhibition of human recombinant sEH using PHOME as substrate preincubated for 30 mins followed by substrate addition measured for 30 mins by fluorescence-based assay.

Series [7] has as its target T6, Bifunctional epoxide hydrolase 2 (Homo sapiens) (UniProt P34913).
T6 sequence (whole entry): T5 sequence (P34913 whole entry)
The series is described as follows: Inhibition of human recombinant sEH using PHOME as substrate at 10 uM preincubated for 30 mins followed by substrate addition measured for 30 mins by fluorescence-based assay.

SMILES strings stand for the structures. In brackets after ≈: the same amount, converted by molar mass. Activity calls are given as the source filed them. No cut-off for these calls is given here.

`O=C(NCc1ccccc1C(F)(F)F)c1ccc(CC(C(=O)O)c2ccccc2)cc1` (stereo unspecified) returned a solubility in series [1] of 75 µM (≈ 32.1 µg/mL). For the same compound, the EC50 result in series [2] and in series [5] was “Not Active” throughout. Besides, the Emax entry in series [3] and in series [4] was “inactive” each time.
`CCOC(=O)C(CC)Cc1ccc(C(=O)NCc2ccc(Cl)cc2)cc1` (stereo unspecified): in series [1], the concentration in solution (solubility) came to 7.5 µM (≈ 2.8 µg/mL). In addition, the IC50 in series [6] was determined as 1.7 µM. For the same compound, the EC50 result in series [2] and in series [5] was “Not Active” in each case. Moreover, in series [3], the Emax result was “inactive”.
On to `CCOC(=O)C(CC)Cc1ccc(C(=O)NCc2ccccc2)cc1` (stereo unspecified), for which, in series [6], the IC50 is 8.5 µM. Also, the EC50 result in series [2] and in series [5] was “Not Active” throughout. Also, in series [3], the Emax result is “inactive”.
In the case of `CC(Cc1ccc(C(=O)NCc2ccccc2C(F)(F)F)cc1)C(=O)O` (stereo unspecified), in series [1], the solubility stood at 375 µM (≈ 137 µg/mL). For the same compound, the EC50 result in series [2] and in series [5] was “Not Active” throughout. In addition, the Emax result in series [3] and in series [4] was “inactive” each time.
Take `CCC(Cc1ccc(C(=O)NCc2ccccc2OC(F)(F)F)cc1)C(=O)O` (stereo unspecified): the inhibition in series [7] was determined as 23%. In addition, in series [1], the solubility came to 375 µM (≈ 148 µg/mL). The EC50 result in series [2] and in series [5] was “Not Active” in each case. Also, the Emax result in series [3] is “inactive”.
`O=C(O)CCc1ccc(C(=O)NCc2ccccc2C(F)(F)F)cc1`: the solubility in series [1] was 375 µM (≈ 132 µg/mL). Moreover, the EC50 result in series [2] and in series [5] was “Not Active” each time. For the same compound, the Emax entry in series [3] and in series [4] was “inactive” in each case.
For the compound `CCCC(Cc1ccc(C(=O)NCc2ccccc2C(F)(F)F)cc1)C(=O)OCC` (stereo unspecified), in series [1], the concentration in solution (solubility) was 3.75 µM (≈ 1.58 µg/mL). Further, the EC50 result in series [2] and in series [5] was “Not Active” in each case. The Emax result in series [3] and in series [4] was “inactive” in each case.
For `CCC(Cc1ccc(C(=O)NCc2ccc(Cl)cc2)cc1)C(=O)O` (stereo unspecified), the concentration in solution in series [1] (solubility) was 375 µM (≈ 130 µg/mL). In addition, in series [6], the IC50 stood at 1.5 µM. For the same compound, the EC50 entry in series [2] and in series [5] was “Not Active” each time. Besides, the Emax entry in series [3] was “inactive”.
On to `CCC(Cc1ccc(C(=O)NCc2ccccc2)cc1)C(=O)O` (stereo unspecified), for which the inhibition in series [7] turned out to be 4%. For the same compound, the EC50 result in series [2] and in series [5] was “Not Active” throughout. Also, the Emax entry in series [3] was “inactive”.
For `O=C(NCc1ccccc1C(F)(F)F)c1ccc(C2CC2C(=O)O)cc1` (stereo unspecified), the EC50 entry in series [2] and in series [5] was “Not Active” in each case. Further, the Emax entry in series [3] and in series [4] was “inactive” throughout.
Take `CCC(Cc1ccc(C(=O)NCc2ccccc2C)cc1)C(=O)O` (stereo unspecified): the inhibition in series [7] was 25%. Also, the EC50 result in series [2] and in series [5] was “Not Active” throughout. Also, the Emax entry in series [3] is “inactive”.
As for `CCOC(=O)C(CC)Cc1ccc(C(=O)NCc2ccc(OC(F)(F)F)cc2)cc1` (stereo unspecified), in series [6], the IC50 was found to be 0.9 µM. Also, the EC50 entry in series [2] is recorded as “Not Active”.
For the compound `CCOC(=O)CCc1ccc(C(=O)NCc2ccccc2C(F)(F)F)cc1`, in series [1], the solubility came out at 3.75 µM (≈ 1.42 µg/mL). Besides, the EC50 result in series [2] and in series [5] was “Not Active” throughout. The Emax entry in series [3] and in series [4] was “inactive” in each case.
Turning to `CCCC(Cc1ccc(C(=O)NCc2ccccc2C(F)(F)F)cc1)C(=O)O` (stereo unspecified), the solubility in series [1] stood at 375 µM (≈ 148 µg/mL). Moreover, the EC50 entry in series [2] and in series [5] was “Not Active” in each case. Also, the Emax entry in series [3] and in series [4] was “inactive” in each case.
Take `CCOC(=O)C(CC)Cc1ccc(C(=O)NCc2ccc(F)cc2)cc1` (stereo unspecified): in series [6], the IC50 was 2.2 µM. In addition, the EC50 result in series [2] and in series [5] was “Not Active” throughout. The Emax result in series [3] was “inactive”.
Take `CCC(Cc1ccc(C(=O)NCc2ccc(F)cc2C(F)(F)F)cc1)C(=O)O` (stereo unspecified): in series [6], the IC50 amounted to 1.2 µM. The EC50 result in series [2] and in series [5] was “Not Active” in each case. The Emax result in series [3] was “inactive”.
In turn, `CCOC(=O)C(C)Cc1ccc(C(=O)NCc2ccccc2C(F)(F)F)cc1` (stereo unspecified) registered a solubility in series [1] of 7.5 µM (≈ 2.95 µg/mL). Besides, the EC50 entry in series [2] and in series [5] was “Not Active” in each case. Further, the Emax entry in series [3] and in series [4] was “inactive” each time.
With `CCOC(=O)C(CC)Cc1ccc(C(=O)NCc2ccc(F)cc2C(F)(F)F)cc1` (stereo unspecified), the IC50 in series [6] came to 0.12 µM. For the same compound, the EC50 entry in series [2] and in series [5] was “Not Active” in each case. The Emax result in series [3] is “inactive”.
For `CCC(Cc1ccc(C(=O)NCc2ccc(F)cc2)cc1)C(=O)O` (stereo unspecified), the inhibition in series [7] came out at 28%. Moreover, the EC50 entry in series [2] and in series [5] was “Not Active” in each case. The Emax result in series [3] is “inactive”.
For the compound `CCC(Cc1ccc(C(=O)NCc2ccc(OC(F)(F)F)cc2)cc1)C(=O)O` (stereo unspecified), the IC50 in series [6] was found to be 14 µM. Also, the EC50 entry in series [2] is listed as “Not Active”.
In the case of `CCOC(=O)/C(=C/c1ccc(C(=O)NCc2ccccc2C(F)(F)F)cc1)CC`, the EC50 result in series [2] and in series [5] was “Not Active” each time. Also, the Emax result in series [3] and in series [4] was “inactive” in each case.
For `CC/C(=C\c1ccc(C(=O)NCc2ccccc2C(F)(F)F)cc1)C(=O)O`, the EC50 entry in series [2] and in series [5] was “Not Active” each time. Also, the Emax entry in series [3] and in series [4] was “inactive” throughout.
With `CCOC(=O)C(Cc1ccc(C(=O)NCc2ccccc2C(F)(F)F)cc1)c1ccccc1` (stereo unspecified), the solubility in series [1] was 3.75 µM (≈ 1.71 µg/mL). The EC50 entry in series [2] and in series [5] was “Not Active” throughout. In addition, the Emax result in series [3] and in series [4] was “inactive” in each case.
The compound `CCOC(=O)C(CC)Cc1ccc(C(=O)NCc2ccccc2OC(F)(F)F)cc1` (stereo unspecified) displayed a solubility in series [1] of 75 µM (≈ 31.8 µg/mL). In addition, in series [6], the IC50 was found to be 0.03 µM. The EC50 result in series [2] and in series [5] was “Not Active” in each case. In series [3], the Emax result is “inactive”.
Consider `CCC(Cc1ccc(C(=O)NCc2ccccc2Cl)cc1)C(=O)O` (stereo unspecified), for which the inhibition in series [7] was 20%. Also, the EC50 entry in series [2] and in series [5] was “Not Active” throughout. Moreover, the Emax entry in series [3] is “inactive”.
For `CCOC(=O)C(CC)Cc1ccc(C(=O)NCc2ccccc2Cl)cc1` (stereo unspecified), in series [6], the IC50 turned out to be 3.8 µM. Further, the EC50 entry in series [2] and in series [5] was “Not Active” throughout. Besides, in series [3], the Emax entry is “inactive”.
With `CCOC(=O)C(CC)Cc1cccc(C(=O)NCc2ccccc2C(F)(F)F)c1` (stereo unspecified), the EC50 entry in series [2] and in series [5] was “Not Active” in each case. Further, the Emax result in series [3] and in series [4] was “inactive” each time.
On to `CCOC(=O)C(CC)Cc1ccc(C(=O)NCc2ccc(OC)cc2)cc1` (stereo unspecified), for which the solubility in series [1] was 7.5 µM (≈ 2.77 µg/mL). In series [6], the IC50 stood at 0.62 µM. Besides, the EC50 entry in series [2] and in series [5] was “Not Active” throughout. For the same compound, the Emax result in series [3] is “inactive”.
